Results on 8 molecules are retold here after ChEMBL document CHEMBL1201862, “PubChem BioAssay data set” (2004).

The source made the active and inactive calls.

The nature of experiment [1]: Vero cell cytotoxicity, dose response, cytotoxicity control for Vif-APOBEC3G degradation inhibitor project, Vero cells (AID 1117358). Type of experiment: functional. To be noted: Human immunodeficiency virus 1, Vero.
Experiment [2] concerns the target Serine/threonine-protein phosphatase PP1-alpha catalytic subunit (Homo sapiens, UniProt P62136). Put plainly: PP1 phosphatase inhibitors, dose response, biochemical, fluorescence (AID 2403).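 Note: phosphatase turnover of OMFP into fluorescent 3-O-methylfluorescein.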
The nature of experiment [3]: microbe, parasite or virus in culture. The settings on record: Mycobacterium tuberculosis. The class given is functional.
For experiment [4], the target named is Serine/threonine-protein phosphatase (Homo sapiens, UniProt Q9BPW0). Nature of the experiment: Counterscreen for inhibitors of PP1: fluorescence-based biochemical high throughput dose response assay to identify inhibitors of Protein Phosphatase 5 (PP5). [Related pubchem assays: 2034 (Summary (PP5 inhibitors)), 1987 (PP5 inhibitors in singlate), 2235 (PP1 inhibitors in singlate)]. (In general: Counterscreens check selectivity or assay interference.)

Experiment [5] can be described thus: Artemis endonuclease inhibitor potency, dose response, biochemical, fluorescence intensity (AID 720701).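 Note: Artemis endonuclease enzyme.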 The class given is functional.
The next experiment has as its target Cytochrome P450 2C9 (Homo sapiens, UniProt P11712).
The target in experiment [6] is T1, DNA repair protein RAD52 homolog (Homo sapiens, UniProt P43351).
T1 sequence (P43351 whole entry): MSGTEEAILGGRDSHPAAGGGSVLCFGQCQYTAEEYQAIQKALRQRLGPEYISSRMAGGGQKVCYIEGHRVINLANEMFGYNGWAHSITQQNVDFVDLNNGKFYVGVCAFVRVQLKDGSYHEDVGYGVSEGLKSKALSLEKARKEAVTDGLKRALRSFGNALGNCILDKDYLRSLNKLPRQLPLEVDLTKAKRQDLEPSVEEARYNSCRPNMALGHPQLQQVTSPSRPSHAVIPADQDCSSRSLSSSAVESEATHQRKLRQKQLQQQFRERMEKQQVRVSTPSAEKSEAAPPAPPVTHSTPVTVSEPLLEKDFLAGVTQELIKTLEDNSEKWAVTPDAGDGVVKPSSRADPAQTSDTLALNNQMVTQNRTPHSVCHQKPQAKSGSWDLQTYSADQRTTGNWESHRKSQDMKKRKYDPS
The class given is functional, biochemical.

Experiment [7] concerns the target RNA-editing ligase 1, mitochondrial (Trypanosoma brucei brucei, UniProt P86926). Nature of the experiment: TbREL1 ligase inhibitors, dose response, biochemical, fluorescence, Trypanosoma brucei (AID 1117295). Type of experiment: functional.
The nature of experiment [8]: inhibitors of firefly luciferase expression or activity, dose response, H4 neuroglioma cells, luminescence (AID 1990). The class given is functional, cell-based.
Experiment [9] in a line: Luminescence Cell-Based Dose Response HTS to Identify Inhibitors of 5'UTR Stem-Loop Driven Prion Protein mRNA Translation in H4 Neuroglioblastoma Cells. [Related pubchem assays: 1827 (Project Summary), 1813 (Primary HTS)]. The class given is functional.
Experiment [10] is described as follows: inhibitors of SNCA 5'UTR-driven reporter translation, confirmation, H4 neuroglioma cells, luminescence (AID 1988). The class given is functional, cell-based.
Experiment [11] can be described thus: inhibitors of Vif binding to APOBEC3G peptide, primary screen, biochemical, TR-FRET, GST-Vif 1-94, biotin-A3G peptide, dose response retest (AID 1117319).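 Note: TR-FRET signal of purified GST-Vif binding a biotinylated A3G peptide; inhibitors lower the FRET signal by blocking Vif and A3G binding.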 Type of experiment: functional.
For experiment [12], the target named is NAD-dependent protein deacylase sirtuin-5, mitochondrial (Homo sapiens, UniProt Q9NXA8). Put plainly: SIRT5 desuccinylase inhibitors, dose response, biochemical, fluorescence imaging, cherry-pick, set 5 (AID 720591).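 Note: desuccinylation of succinyl peptide AMC substrate read as fluorescence after trypsin release; potency of inhibitors that lower fluorescence and may act on trypsin instead.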
A further experiment has as its target T2, Protein skinhead-1 (Caenorhabditis elegans, UniProt P34707).
T2 sequence (P34707 whole entry): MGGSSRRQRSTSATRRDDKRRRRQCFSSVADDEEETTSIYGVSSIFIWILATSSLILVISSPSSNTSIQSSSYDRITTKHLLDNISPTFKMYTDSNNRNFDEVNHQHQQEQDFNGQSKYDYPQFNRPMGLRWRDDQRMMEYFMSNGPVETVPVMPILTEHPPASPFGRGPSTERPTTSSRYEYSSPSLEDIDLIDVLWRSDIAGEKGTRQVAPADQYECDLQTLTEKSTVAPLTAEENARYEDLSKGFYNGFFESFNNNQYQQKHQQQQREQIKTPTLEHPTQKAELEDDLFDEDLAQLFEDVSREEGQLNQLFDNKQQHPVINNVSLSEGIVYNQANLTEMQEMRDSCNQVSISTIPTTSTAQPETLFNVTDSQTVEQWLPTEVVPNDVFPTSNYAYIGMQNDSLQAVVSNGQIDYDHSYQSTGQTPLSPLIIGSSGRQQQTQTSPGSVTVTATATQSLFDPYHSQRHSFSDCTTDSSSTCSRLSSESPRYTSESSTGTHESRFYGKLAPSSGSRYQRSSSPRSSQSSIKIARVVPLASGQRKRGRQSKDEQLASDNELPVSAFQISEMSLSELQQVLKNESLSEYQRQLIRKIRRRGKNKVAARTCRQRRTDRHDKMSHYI
Type of experiment: functional.

In experiment [13] the target is Oxysterols receptor LXR-beta (Homo sapiens, UniProt P55055). The class given is functional, cell-based.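 Note: Cell-based luminescence dose-response assay of agonist activity at LXR, run as a confirmatory counterscreen to a daf-12 agonist screen; HEK293 cells with Gal4-LXR fusion and GAL4-driven luciferase reporter; agonist potency from rising luciferase signal of a Gal4-LXR reporter.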
The nature of experiment [14]: THP-1 cell cytotoxicity, dose response, cytotoxicity control for Vif-APOBEC3G degradation inhibitor project, THP-1 cells (AID 1117359). The class given is functional. The settings on record: Human immunodeficiency virus 1, THP-1.
For experiment [15], the target named is Sphingosine 1-phosphate receptor 2 (Homo sapiens, UniProt O95136). Put plainly: Dose Response Cell Based Assay for Antagonists of the S1P2 Receptor. [Related pubchem assays: 856, 736 ]. The class given is functional.
For the next experiment, the system named is INS1. Nature of the experiment: beta cell apoptosis inhibitors, cytokine rescue, dose response, luminescence, retest (AID 449756).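 Note: cell death triggered by IL-1 beta plus TNF-alpha plus IFN-gamma mixture; protective hits raise ATP signal compared with cytokine alone wells.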 To be noted: Rattus norvegicus. The class given is functional, cell-based.

Sequence of Serine/threonine-protein phosphatase PP1-alpha catalytic subunit (P62136 whole entry): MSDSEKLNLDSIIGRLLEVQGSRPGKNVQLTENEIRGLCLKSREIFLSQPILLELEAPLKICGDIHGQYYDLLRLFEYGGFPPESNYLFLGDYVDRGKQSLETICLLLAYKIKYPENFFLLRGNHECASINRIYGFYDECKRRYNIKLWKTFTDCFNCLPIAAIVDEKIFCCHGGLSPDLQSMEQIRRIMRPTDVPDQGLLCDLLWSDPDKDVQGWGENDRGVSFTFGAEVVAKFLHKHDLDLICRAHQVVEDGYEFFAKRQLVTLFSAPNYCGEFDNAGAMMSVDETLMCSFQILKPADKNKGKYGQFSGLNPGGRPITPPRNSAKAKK
Sequence of Serine/threonine-protein phosphatase (Q9BPW0 whole entry): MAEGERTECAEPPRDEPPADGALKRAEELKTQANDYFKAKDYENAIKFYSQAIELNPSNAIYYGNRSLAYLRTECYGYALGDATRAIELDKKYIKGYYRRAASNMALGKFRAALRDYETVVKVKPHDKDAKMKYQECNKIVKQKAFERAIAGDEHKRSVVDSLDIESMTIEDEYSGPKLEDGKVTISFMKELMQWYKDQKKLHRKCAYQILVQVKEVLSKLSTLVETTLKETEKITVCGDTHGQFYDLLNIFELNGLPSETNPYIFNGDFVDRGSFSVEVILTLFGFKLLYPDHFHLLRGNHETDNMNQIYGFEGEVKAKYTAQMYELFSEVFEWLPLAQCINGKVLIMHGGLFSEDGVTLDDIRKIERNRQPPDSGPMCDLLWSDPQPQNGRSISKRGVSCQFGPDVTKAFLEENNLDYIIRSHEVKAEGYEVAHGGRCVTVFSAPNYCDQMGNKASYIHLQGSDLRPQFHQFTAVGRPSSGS
Sequence of RNA-editing ligase 1, mitochondrial (P86926 whole entry): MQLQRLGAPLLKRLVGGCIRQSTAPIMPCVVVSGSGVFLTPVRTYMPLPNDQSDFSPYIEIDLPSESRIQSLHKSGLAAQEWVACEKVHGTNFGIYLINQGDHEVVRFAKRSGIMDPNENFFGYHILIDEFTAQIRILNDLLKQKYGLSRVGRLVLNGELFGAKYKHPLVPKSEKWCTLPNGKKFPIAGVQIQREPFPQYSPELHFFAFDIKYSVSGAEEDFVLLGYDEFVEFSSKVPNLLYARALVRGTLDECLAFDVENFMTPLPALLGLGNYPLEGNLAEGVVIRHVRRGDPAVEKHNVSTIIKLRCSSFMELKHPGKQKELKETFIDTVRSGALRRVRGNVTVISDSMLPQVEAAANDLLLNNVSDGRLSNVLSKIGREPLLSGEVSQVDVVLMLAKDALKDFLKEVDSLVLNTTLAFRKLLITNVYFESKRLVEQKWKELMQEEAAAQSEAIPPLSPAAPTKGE
Sequence of Oxysterols receptor LXR-beta (P55055 whole entry, the tested form may be a part): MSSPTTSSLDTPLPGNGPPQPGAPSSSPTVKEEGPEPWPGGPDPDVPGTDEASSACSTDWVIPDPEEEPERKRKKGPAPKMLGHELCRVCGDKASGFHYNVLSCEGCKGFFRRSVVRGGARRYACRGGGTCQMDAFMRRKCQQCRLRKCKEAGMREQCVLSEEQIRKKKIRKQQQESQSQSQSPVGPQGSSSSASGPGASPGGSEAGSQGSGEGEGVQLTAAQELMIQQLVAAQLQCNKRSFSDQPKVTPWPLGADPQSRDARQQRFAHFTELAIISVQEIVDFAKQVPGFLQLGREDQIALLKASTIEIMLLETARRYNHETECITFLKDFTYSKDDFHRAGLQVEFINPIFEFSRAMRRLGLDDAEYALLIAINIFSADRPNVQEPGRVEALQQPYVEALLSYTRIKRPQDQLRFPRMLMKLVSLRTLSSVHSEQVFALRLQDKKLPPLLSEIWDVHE
Sequence of NAD-dependent protein deacylase sirtuin-5, mitochondrial (Q9NXA8 whole entry): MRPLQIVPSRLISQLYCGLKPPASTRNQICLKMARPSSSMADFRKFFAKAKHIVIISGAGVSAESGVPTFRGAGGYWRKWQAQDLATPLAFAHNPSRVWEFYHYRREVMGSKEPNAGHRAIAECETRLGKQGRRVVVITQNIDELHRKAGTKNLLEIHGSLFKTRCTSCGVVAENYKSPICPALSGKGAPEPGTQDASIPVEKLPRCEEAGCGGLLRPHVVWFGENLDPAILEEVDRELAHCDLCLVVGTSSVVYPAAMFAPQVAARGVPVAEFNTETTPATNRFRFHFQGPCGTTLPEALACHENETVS
Sequence of Cytochrome P450 2C9 (P11712 whole entry): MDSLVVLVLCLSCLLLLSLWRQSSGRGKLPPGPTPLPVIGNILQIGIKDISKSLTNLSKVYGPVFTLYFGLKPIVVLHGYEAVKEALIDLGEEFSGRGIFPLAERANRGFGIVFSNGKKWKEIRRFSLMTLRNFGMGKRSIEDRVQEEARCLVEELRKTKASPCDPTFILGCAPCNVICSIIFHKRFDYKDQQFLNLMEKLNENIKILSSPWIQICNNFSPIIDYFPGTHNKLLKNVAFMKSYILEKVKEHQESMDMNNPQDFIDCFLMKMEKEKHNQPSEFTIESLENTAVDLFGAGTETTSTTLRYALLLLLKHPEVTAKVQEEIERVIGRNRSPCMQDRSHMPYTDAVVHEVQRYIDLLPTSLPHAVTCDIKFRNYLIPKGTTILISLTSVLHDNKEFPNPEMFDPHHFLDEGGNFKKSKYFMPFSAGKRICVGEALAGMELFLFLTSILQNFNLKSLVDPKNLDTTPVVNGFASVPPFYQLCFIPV
Sequence of Sphingosine 1-phosphate receptor 2 (O95136 whole entry): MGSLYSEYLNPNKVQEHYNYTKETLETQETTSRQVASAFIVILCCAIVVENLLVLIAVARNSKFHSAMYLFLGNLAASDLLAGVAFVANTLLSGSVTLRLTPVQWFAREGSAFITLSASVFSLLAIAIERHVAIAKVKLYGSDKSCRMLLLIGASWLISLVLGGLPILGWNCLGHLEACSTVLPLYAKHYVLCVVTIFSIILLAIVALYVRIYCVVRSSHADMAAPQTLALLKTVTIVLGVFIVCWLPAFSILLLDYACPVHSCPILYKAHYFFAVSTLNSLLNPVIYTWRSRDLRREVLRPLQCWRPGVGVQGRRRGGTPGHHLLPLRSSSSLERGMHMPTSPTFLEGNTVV

On to `O=C(CSc1nc2cc(Cl)ccc2s1)N1CCN(C(=O)c2ccco2)CC1`, for which, in experiment [1], the CC50 is > 40 µM (active).
As to `c1ccc(-c2nccc(-c3ccc(-n4cnc5ccccc54)cc3)n2)nc1`, the half-inhibitory concentration (IC50) (in general, the midpoint of a concentration-inhibition curve) in experiment [2] was 4 µM (active); in experiment [4] it was 57.6 µM (not active); in experiment [5], 4.65 µM (active). Besides, the CC50 in experiment [3] was > 40 µM (active). The half-maximal activity concentration (AC50) (commonly the concentration at which the activity in the assay is half-maximal) at Cytochrome P450 2C9 was 22.4 µM (inconclusive).
`COc1ccccc1N(Cc1ccccc1)S(=O)(=O)c1cccc(C(=O)NC2CC(C)(C)NC(C)(C)C2)c1`: in experiment [6], the AC50 is 13.4 µM (active). Moreover, the IC50 in experiment [7] is > 96.6 µM (inactive).
On to `Cc1ccc(NCc2nnc(SCc3ccc(C#N)cc3)n2Cc2ccco2)c(C)c1`, for which the EC50 in experiment [8], in [9] and in experiment [10] was > 120 µM (not active) throughout. Also, the concentration for half-maximal inhibition (IC50) in experiment [11] was > 100 µM (active).
As to `COc1ccc(CN(C(=O)c2ccco2)c2ccc(C)c(C)c2)cc1`, the AC50 in experiment [12] was 24.7 µM (active).
In the case of `Clc1ccc(C=Cc2ccccn2)c(Cl)c1`, at Protein skinhead-1, the IC50 was 4.24 µM (active). Also, the EC50 (in [13]; in “cells”) was > 67.6 µM (inactive) each time.
Take `Cc1cc(N(CCCl)CCCl)ccc1C=NNC(=O)c1cccnc1`: the CC50 in experiment [14] is 20 µM (active).
With `Cc1ccc(-c2nn(-c3ccccc3)cc2/C=N/NC(=O)c2ccc(Br)o2)cc1`, the IC50 in [15] was 3.36 µM (active). Moreover, the AC50 in the experiment with INS1 was 0.716 µM (active).
